Results taken from patent US10006920B2, “Diagnostic kit for diagnosis of abnormal protein aggregation- or misfolding-related diseases using dissociation of protein aggregates” (KOREA INSTITUTE OF SCIENCE AND TECHNOLOGY, priority 2013, dated 2018).
“And” between values parts separate entries of the source, which are not always exact repeats. Identical values can stand only once. “Also recorded” adds a separate entry of the source.

Legend:
[1] = tested on: β-amyloid oligomers, profibrils, fibrils and plaque aggregates; test: SDS-PAGE analysis of dissociation of β-amyloid aggregates; assay type: biochemical
[2] = tested on: β-amyloid oligomers, profibrils, fibrils and plaques; test: Electron microscopic observation of β-amyloid aggregates; assay type: biochemical; conditions: electron microscopy
β-amyloid [3] = molecular target: T1, β-amyloid (Homo sapiens, UniProt P05067); test: Plasma β-amyloid concentration before and after administration of EPPS, B−A by Equation 1; assay type: in vivo, APP/PS1 transgenic mice; set-up: tissue Jackson Laboratory (mice); host or cells: plasma / whole blood of female APP/PS1 transgenic mice; B-A (1 day) / B-A (5 days) / B-A (19 days) / B-A (33 days): unit not given here; conditions: for B-A (1 day): average of three measurements
Procedure: Female APP/PS1 transgenic mice were used as test animals. A total of 32 mice were used (eleven 5-6 month-olds and twenty-one 7.2-8.6 and 13 month-olds). 5-6-month-old mice were used since β-amyloid plaque accumulation in the brain begins from 5 months.
The transgenic APP/PS1 mouse model was B6C3-Tg(APPswe, PSEN1dE9)85Dbo/Mmjax purchased from the Jackson Laboratory (USA) and maintained and used for experiments under the guideline of the Animal Care and Use Committee.
EPPS was administered to each of the 32 mice at a dose of 1,000 mg/kg/day.
Blood was drawn from the of the retro-orbital venous plexus of the mouse using a microtube (Marienfeld, Germany) treated with 80 IU/mL heparin before and after the administration of EPPS. The blood drawing after the administration of EPPS was performed 1 day, 5 days, 19 days and 33 days after the administration of EPPS.
The blood was collected in an Eppendorf tube and centrifuged at 13,500 rpm and 4° C. for 5 minutes. Plasma separated from the cell fraction was collected in an Eppendorf tube for immediate use or for storage at −80° C. for later use.
β-Amyloid concentration in the plasma collected before and after the administration of EPPS was measured by detection units 1 and 2 of a kit. B−A was calculated by a calculation unit from the measured concentrations using [Equation 1].

β-amyloid [4] = molecular target: T1, β-amyloid; test: β-amyloid concentration in plasma and whole blood treated with EPPS (APP/PS1 transgenic mouse); set-up: tissue Jackson Laboratory (mice); host or cells: plasma / whole blood of female APP/PS1 transgenic mice; conditions: 9-month-old APP/PS1 mice
Procedure: 9-month-old female APP/PS1 transgenic mice were used as test animals.
The transgenic APP/PS1 mouse model was B6C3-Tg(APPswe,PSEN1dE9)85Dbo/Mmjax purchased from the Jackson Laboratory (USA) and bred and used for experiments under the guideline of the Animal Care and Use Committee.
Sample treatment and β-amyloid concentration measurement were conducted in the same manner as in Example 1.

β-amyloid [5] = molecular target: T1, β-amyloid; test: β-amyloid monomer concentration in plasma and whole blood treated with EPPS (APP/PS1/Tau transgenic mouse); set-up: tissue Jackson Laboratory (mice); host or cells: plasma / whole blood of 5-month-old female APP/PS1/Tau transgenic mice, treated ex vivo with EPPS; conditions: 5-month-old APP/PS1/Tau mice
Text: 5-month-old female APP/PS1/Tau transgenic mice were used as test animals.
The transgenic APP/PS1/Tau mouse model was B6;129-Psen1tm1MpmTg(APPSwe,tauP301L)1Lfa/Mmjax purchased from the Jackson Laboratory (USA) and maintained and used for experiments under the guideline of the Animal Care and Use Committee.
Blood was collected in K2 EDTA-treated vacuum tube containing Roche Complete Mini (protease inhibitor) solution and centrifuged. Plasma separated from the cell fraction was collected in an Eppendorf tube and prepared into 0.1-mL samples, which were used immediately or stored at −80° C. for later use. Whole blood was collected in an Eppendorf tube by treating with EPPS and separating plasma from the cell fraction and prepared into 0.1-mL samples, which were used immediately for β-amyloid concentration measurement or stored at −80° C. for later use.
The plasma was treated with water (control group) or EPPS (EPPS group).
As for the EPPS group, 15 μL of the plasma was treated with 5 μL of 400 mM EPPS, so that the final EPPS concentration was 100 mM. As for the control group, 15 μL of plasma was treated with 5 μL of PBS, so that the concentration was the same as that of the EPPS group. […]
The whole blood was analyzed after treating with EPPS. […]
The β-amyloid concentration in each plasma was measured using detection units 1 and 2 and MB/MP was calculated by a calculation unit using [Equation 2].

[6] = Aged (7.2 months or older) female APP/PS1 mice, one value per mouse, EPPS 1,000 mg/kg/day, plasma β-amyloid after minus before
[7] = EPPS-treated whole blood / EPPS-treated plasma (Equation 2)
[8] = control plasma / EPPS-treated plasma (Equation 3)

T1 sequence (P05067 672-713 limits assumed): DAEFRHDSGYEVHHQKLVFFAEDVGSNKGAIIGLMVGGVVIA

## O=S(=O)(O)CCCN1CCN(CCO)CC1 [EPPS, 4-(2-Hydroxyethyl)-1-piperazinepropanesulfonic acid]
[1]
  Dissociation of β-amyloid aggregates (bands of Aβ 40 and Aβ 42 monomers, 4.3-4.5 kD): has the activity of dissociating β-amyloid oligomers, profibrils, fibrils and plaque aggregates; also recorded: has the activity of dissociating β-amyloid dimer, oligomer, profibril, fibril and plaque aggregates
[2]
  Dissociation of β-amyloid aggregates by electron microscopic observation: no β-amyloid aggregates are observed; also recorded: confirms the activity of dissociating β-amyloid dimers, oligomers, profibrils, fibrils and plaques
β-amyloid [3]; 5-6-month-old (young) and 7.2-month-old (aged) mice, before vs 24 hours after
  β-amyloid 42 concentration in plasma after administration (FIG. 3a): significant increase
β-amyloid [3]; 7.2-month-old (aged) mice, 1, 5, 19 and 33 days after administration
  β-amyloid 42 concentration in plasma, course over time (FIG. 3b): significant increase in β-amyloid 42 concentration followed by decrease
β-amyloid [3]; 24 hours (1 day) after administration of EPPS, all the mice
  B−A value (sign): positive (+)
β-amyloid [3]; [6]
  B-A (5 days): 93.531 and 163.986 and 51.584 and 76.049 and 170.979 and 86.122 and 108.916 and 311.820 and 134.965 and 170.656 and 207.692 and 55.115 and 209.711 and 88.441 and 105.420 and 130.096 and 118.007 and 70.105 and 185.315 and 66.259 and 214.549
  B-A (19 days): 298.504 and 52.809 and 70.596 and 86.108 and 129.025 and 57.487 and 53.294 and 43.826 and 101.221 and 82.444 and 136.814 and 131.569 and 88.695 and 61.725 and 27.070 and 32.708 and 22.406 and 20.515 and 59.409
  B-A (33 days): 114.33 and 23.509 and 148.154 and 21.599 and 71.410 and 4.797 and 24.240 and 11.079 and 42.621 and 31.969 and 60.179 and 39.237 and 23.448 and 33.902 and 41.596 and 59.545 and 31.762 and 51.292 and 78.101
  B-A (1 day): 78.802 and 41.434 and 20.276 and 12.442 and 15.385 and 7.373 (2×) and 182.867 and 10.138 and 13.364 and 11.060 and 4.147 and 140.559 and 16.129 and 194.580 and 18.894 and 6.119 and 345.979 and 19.816 and 156.294 and 180.594
β-amyloid [3]; Young (5-6 months) female APP/PS1 mice, one value per mouse, EPPS 1,000 mg/kg/day, plasma β-amyloid after minus before
  B-A (1 day): 52.151 and 22.674 and 98.547 and 20.430 and 191.398 and 124.731 and 108.065 and 102.326 and 89.535 and 94.186 and 146.802
β-amyloid [3]; since 19 days after the administration of EPPS
  B−A value, course over time: began to decrease
β-amyloid [4]; [7]
  MB/MP: 0.79
β-amyloid [4]; [8]
  UP/MP: 0.99
β-amyloid [4]; plasma treated with EPPS, average of three measurements
  MP Aβ concentration (monomer concentration in plasma of the EPPS group): 151.58 ± 24.03
β-amyloid [5]; [7]
  MB/MP: 0.61
β-amyloid [5]; [8]
  UP/MP: 0.92
